Assays:
[1] = Solubility of the compound in acetone by shake-flask method; type: physicochemical
[2] = Solubility of the compound in ethanol by shake-flask method; type: physicochemical
[3] = species: Rattus norvegicus; assay: animal or person; details: Wistar, po, read-out: INH
[4] = species: Rattus norvegicus; assay: animal or person; details: Wistar, po, read-out: INH; remark: listed apart in the source
[5] = Solubility of the compound in water by shake-flask method; type: physicochemical; details: buffer
[6] = Solubility of the compound in chloroform by shake-flask method; type: physicochemical
[7] = Solubility of the compound in methanol by shake-flask method; type: physicochemical
[8] = Solubility of the compound in DMSO by shake-flask method; type: physicochemical
[9] = species: Rattus norvegicus; assay: animal or person; details: Wistar, po, read-out: INH; remark: listed apart in the source
[10] = species: Rattus norvegicus; assay: animal or person; details: Wistar, po, read-out: INH; remark: listed apart in the source
[11] = n-Octanol-water partition coefficient, log P of the compound by shake-flask method; type: physicochemical
[12] = Inhibition of soybean lipoxygenase preincubated for 5 mins followed by linoleic acid substrate addition measured after 20 mins by spectrophotometric method; parameters: species or system Glycine max
[13] = molecular target: T1, Prostaglandin G/H synthase 2 (Homo sapiens, UniProt P35354)
T1 sequence (P35354 whole entry): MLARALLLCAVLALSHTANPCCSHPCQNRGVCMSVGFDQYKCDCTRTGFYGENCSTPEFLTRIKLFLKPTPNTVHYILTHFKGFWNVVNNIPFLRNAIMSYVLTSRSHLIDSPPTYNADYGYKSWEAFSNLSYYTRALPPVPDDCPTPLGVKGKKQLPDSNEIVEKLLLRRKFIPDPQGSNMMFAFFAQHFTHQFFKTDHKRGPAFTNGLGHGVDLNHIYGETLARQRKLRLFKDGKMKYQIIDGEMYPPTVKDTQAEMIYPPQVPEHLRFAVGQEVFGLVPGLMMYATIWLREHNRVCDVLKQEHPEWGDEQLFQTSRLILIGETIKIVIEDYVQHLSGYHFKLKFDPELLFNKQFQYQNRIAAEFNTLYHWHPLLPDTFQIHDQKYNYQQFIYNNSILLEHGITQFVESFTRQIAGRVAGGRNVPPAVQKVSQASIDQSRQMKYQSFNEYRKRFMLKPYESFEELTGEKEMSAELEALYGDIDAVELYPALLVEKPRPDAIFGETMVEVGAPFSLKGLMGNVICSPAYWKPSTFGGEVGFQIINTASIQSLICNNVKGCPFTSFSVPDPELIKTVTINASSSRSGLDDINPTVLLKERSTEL
Description: Inhibition of human COX-2 preincubated for 5 mins followed by arachidonic acid substrate addition by colorimetric enzyme immunoassay

[14] = Non noncompetitive inhibition of soybean lipoxygenase preincubated for 5 mins followed by substrate addition measured after 20 mins by Lineweaver-Burk plot analysis; parameters: species or system Glycine max
[15] = molecular target: T1, Prostaglandin G/H synthase 2; assay: Non noncompetitive inhibition of human COX-2 preincubated for 5 mins followed by arachidonic acid substrate addition by Lineweaver-Burk plot analysis
[16] = molecular target: T2, Prostaglandin G/H synthase 1 (Ovis aries, UniProt P05979)
T2 sequence (P05979 whole entry): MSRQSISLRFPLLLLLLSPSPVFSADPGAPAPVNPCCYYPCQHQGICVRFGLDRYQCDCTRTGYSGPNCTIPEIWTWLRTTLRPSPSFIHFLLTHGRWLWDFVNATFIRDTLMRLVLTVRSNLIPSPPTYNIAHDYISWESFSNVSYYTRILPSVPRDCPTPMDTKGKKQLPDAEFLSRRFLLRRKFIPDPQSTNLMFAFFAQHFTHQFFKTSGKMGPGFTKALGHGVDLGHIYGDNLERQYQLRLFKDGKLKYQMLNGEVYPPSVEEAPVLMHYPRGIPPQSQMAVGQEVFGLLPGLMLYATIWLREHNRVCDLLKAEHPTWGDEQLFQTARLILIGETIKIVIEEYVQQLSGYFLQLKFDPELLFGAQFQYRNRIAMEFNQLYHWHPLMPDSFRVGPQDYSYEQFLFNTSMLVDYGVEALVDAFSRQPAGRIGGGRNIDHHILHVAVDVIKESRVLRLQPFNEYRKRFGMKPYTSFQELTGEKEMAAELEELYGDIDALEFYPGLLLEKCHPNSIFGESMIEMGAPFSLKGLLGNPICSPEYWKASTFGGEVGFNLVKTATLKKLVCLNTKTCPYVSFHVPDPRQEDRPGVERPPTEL
Description: Inhibition of ovine COX-1 preincubated for 5 mins followed by arachidonic acid substrate addition by colorimetric enzyme immunoassay

[17] = species: Rattus norvegicus; assay: Gastrointestinal toxicity in adjuvant-induced Wistar rat arthritis model assessed as ulcer index treated for 7 days measured on day 21 post arthritis induction; details: in vivo, 168 h
[18] = tested on: RAW264.7; assay: Anti-inflammatory activity in mouse RAW264.7 cells assessed as reduction in LPS-induced NO production by Griess assay; type: functional, cell-based
[19] = tested on: Rattus norvegicus; assay: Anti inflammatory activity in carrageenan-induced Wistar rat paw edema model assessed as inhibition of left hind paw edema size at 10 mg/kg, po pretreated for 1 hr followed by carrageenan challenge measured after 6 hrs by plethysmometry method (reference value: 0%); type: functional
[20] = tested on: Rattus norvegicus; assay: Anti inflammatory activity in carrageenan-induced Wistar rat paw edema model assessed as inhibition of left hind paw edema size at 10 mg/kg, po pretreated for 1 hr followed by carrageenan challenge measured after 2 hrs by plethysmometry method (reference value: 0%); type: functional
[21] = tested on: Rattus norvegicus; assay: Anti inflammatory activity in carrageenan-induced Wistar rat paw edema model assessed as inhibition of left hind paw edema size at 10 mg/kg, po pretreated for 1 hr followed by carrageenan challenge measured after 4 hrs by plethysmometry method (reference value: 0%); type: functional
[22] = tested on: Rattus norvegicus; assay: Anti inflammatory activity in arachidonic acid-induced Wistar rat paw edema model assessed as inhibition of right hind paw edema thickness at 10 mg/kg, po pretreated for 30 mins followed by arachidonic acid challenge measured after 1 hr (reference value: 0%); type: functional

With NCc1c(-c2ccc(C(F)(F)F)cc2)c(C(=O)O)c2ccccn12 the solubility [1] was “Soluble”, the solubility [2] was “Soluble” and the inhibition in vivo at 10 mg/kg [3] was 40%. The inhibition in vivo at 10 mg/kg [4] was 67.7%, the solubility [5] was “Soluble” and the solubility [6] was “Insoluble”. For the same molecule, the solubility [7] was “Soluble”, the solubility [8] was “Soluble” and the inhibition in vivo at 10 mg/kg [9] was 42.8%. The inhibition in vivo at 10 mg/kg [10] was 62.8% and the logP [11] was 2.06.
With Cc1c(C(=O)O)c2ccccn2c1CN the solubility [1] was “Soluble”, the solubility [2] was “Soluble” and the inhibition in vivo at 10 mg/kg [3] was 23.1%. For the same molecule, the inhibition in vivo at 10 mg/kg [4] was 38.5%, the solubility [5] was “Soluble” and the solubility [6] was “Insoluble”. For the same molecule, the solubility [7] was “Soluble”, the solubility [8] was “Soluble” and the inhibition in vivo at 10 mg/kg [9] was 41.3%. For the same molecule, the inhibition in vivo at 10 mg/kg [10] was 44.2% and the logP [11] was 0.72.
For CCCCc1c(C(=O)O)c2ccccn2c1CN, the solubility [1] was “Soluble”, the solubility [2] was “Soluble” and the inhibition in vivo at 10 mg/kg [3] was 15.4%. For the same molecule, the inhibition in vivo at 10 mg/kg [4] was 23.9%, the solubility [5] was “Soluble” and the solubility [6] was “Insoluble”. For the same molecule, the solubility [7] was “Soluble”, the solubility [8] was “Soluble” and the inhibition in vivo at 10 mg/kg [9] was 23.8%. For the same molecule, the inhibition in vivo at 10 mg/kg [10] was 24.4% and the logP [11] was 2.07.
With NCc1c(-c2ccccc2)c(C(=O)O)c2ccccn12 the IC50 [12] was 13.1 µM, the IC50 [13] was 14.9 µM and the solubility [1] was “Soluble”. The solubility [2] was “Soluble”, the inhibition in vivo at 10 mg/kg [3] was 66.2% and the inhibition in vivo at 10 mg/kg [4] was 88.6%. The solubility [5] was “Soluble”, the Ki [14] was 0.72 µM and the solubility [6] was “Insoluble”. The Ki [15] was 0.92 µM, the solubility [7] was “Soluble” and the solubility [8] was “Soluble”. For the same molecule, the IC50 [16] was over 50 µM, the inhibition in vivo at 10 mg/kg [9] was 68.2% and the inhibition in vivo at 10 mg/kg [10] was 90.5%. The logP [11] was 1.85 and the UI [17] was 10.
With CCc1c(C(=O)O)c2ccccn2c1CN the solubility [1] was “Soluble”, the solubility [2] was “Soluble” and the inhibition in vivo at 10 mg/kg [3] was 20.2%. For the same molecule, the inhibition in vivo at 10 mg/kg [4] was 34.3%, the solubility [5] was “Soluble” and the solubility [6] was “Insoluble”. For the same molecule, the solubility [7] was “Soluble”, the solubility [8] was “Soluble” and the inhibition in vivo at 10 mg/kg [9] was 30.2%. It also gave an inhibition in vivo at 10 mg/kg [10] of 32.5% and a logP [11] of 1.45.
In the case of NCc1c(-c2ccc(F)cc2)c(C(=O)O)c2ccccn12, the solubility [1] is reported as “Soluble”, the solubility [2] is reported as “Soluble” and the inhibition in vivo at 10 mg/kg [3] is reported as 61.5%. The inhibition in vivo at 10 mg/kg [4] was 86.4%, the solubility [5] was “Soluble” and the solubility [6] was “Insoluble”. For the same molecule, the solubility [7] was “Soluble”, the solubility [8] was “Soluble” and the inhibition in vivo at 10 mg/kg [9] was 69.8%. It also gave an inhibition in vivo at 10 mg/kg [10] of 89.5% and a logP [11] of 2.12.
Molecule Cc1ccc2n1[C@@H]1[C@H]3O[C@]([C@H](C)O)(C=C2)[C@H]1c1cc([C@H]2C=Cc4ccc(C)n4[C@@H]2C)cn1[C@@H]3C has an IC50 [18] of 5.31 µM.
In the case of COc1cc(-c2c(C(=O)O)c3ccccn3c2CN)ccc1O, the solubility [1] is reported as “Soluble”, the solubility [2] is reported as “Soluble” and the inhibition in vivo at 10 mg/kg [3] is reported as 36.9%. For the same molecule, the inhibition in vivo at 10 mg/kg [4] was 59.4%, the solubility [5] was “Soluble” and the solubility [6] was “Insoluble”. The solubility [7] was “Soluble”, the solubility [8] was “Soluble” and the inhibition in vivo at 10 mg/kg [9] was 50.8%. For the same molecule, the inhibition in vivo at 10 mg/kg [10] was 63.9% and the logP [11] was 1.55.
In the case of NCc1c(-c2ccc3c(c2)OCO3)c(C(=O)O)c2ccccn12, the solubility [1] is reported as “Soluble”, the solubility [2] is reported as “Soluble” and the inhibition in vivo at 10 mg/kg [3] is reported as 23.1%. For the same molecule, the inhibition in vivo at 10 mg/kg [4] was 78.1%, the solubility [5] was “Soluble” and the solubility [6] was “Insoluble”. The solubility [7] was “Soluble”, the solubility [8] was “Soluble” and the inhibition in vivo at 10 mg/kg [9] was 61.9%. It also gave an inhibition in vivo at 10 mg/kg [10] of 74.4% and a logP [11] of 2.07.
Cc1ccc(-c2cc(C(F)(F)F)nn2-c2ccc(S(N)(=O)=O)cc2)cc1 [CELECOXIB] gave a UI [17] of 53.
For O=C(O)Cc1ccccc1Nc1c(Cl)cccc1Cl [DICLOFENAC], the inhibition in vivo at 10 mg/kg [19] was 90.9%, the inhibition in vivo at 10 mg/kg [20] was 74.6% and the inhibition in vivo at 10 mg/kg [21] was 91.6%. It also gave a UI [17] of 46.
In the case of CC1(C)Cc2c(-c3ccccc3)c(-c3ccc(Cl)cc3)c(CC(=O)O)n2C1 [LICOFELONE], the IC50 [12] is reported as 0.21 µM and the IC50 [16] is reported as 0.16 µM.
With CC(c1cc2ccccc2s1)N(O)C(N)=O (stereo not given) [ZILEUTON] the IC50 [12] was 3.43 µM, the inhibition in vivo at 10 mg/kg [22] was 72.3% and the UI [17] was 52.

— ChEMBL document CHEMBL4043103, “Design, synthesis, and biological evaluation of some novel indolizine derivatives as dual cyclooxygenase and lipoxygenase inhibitor for anti-inflammatory activity” (Bioorg Med Chem, 2017)
